Laboratory results taken from ChEMBL document CHEMBL1955725, “Structure-guided lead optimization of triazolopyrimidine-ring substituents identifies potent Plasmodium falciparum dihydroorotate dehydrogenase inhibitors with clinical candidate potential” (J Med Chem, 2011).
Converted amounts (≈) assume the structure as drawn.

Tests used:
[1] = Volume of distribution in Sprague-Dawley rat at 4.5 mg/kg, iv; type: ADME, organism-based; design: dose 4.5 mg/kg, route intravenous; settings: in vivo
[2] = Aqueous solubility of the compound at pH 6.5; type: physicochemical
[3] = Terminal elimination half life in Sprague-Dawley rat at 1 mg/kg, iv; type: ADME, organism-based; design: dose 1 mg/kg, route intravenous; settings: in vivo, read-out: beta t1/2 (converted)
[4] = tested on: Mus musculus; test: Time plasma concentration remained above 1 uM in Swiss outbred mouse plasma at 0.4 mg/kg, po; type: ADME, organism-based; design: dose 0.4 mg/kg, route oral; settings: in vivo
[5] = Oral bioavailability in Sprague-Dawley rat at 2 mg/kg; type: ADME, organism-based; settings: in vivo
[6] = tested on: Plasmodium falciparum; test: Antimalarial activity against […] Plasmodium falciparum TM90C2A by [3H]hypoxanthine incorporation assay in presence of human serum; type: functional, organism-based
[7] = in vivo; settings: Sprague-Dawley, rat, po, 2 mg/kg
[8] = Cmax in Sprague-Dawley rat at 2 mg/kg, po; type: ADME, organism-based; design: dose 2 mg/kg, route oral; settings: in vivo
[9] = Cmax in human RBC engrafted NOD-SCID IL-2Rgamma-null mouse at 5.7 mg/kg, po; type: ADME, organism-based; design: dose 5.7 mg/kg, route oral; settings: in vivo
[10] = Cmax in Sprague-Dawley rat at 21.2 mg/kg, po; type: ADME, organism-based; design: dose 21.2 mg/kg, route oral; settings: in vivo
[11] = Volume of distribution in Sprague-Dawley rat at 1 mg/kg, iv; type: ADME, organism-based; design: dose 1 mg/kg, route intravenous; settings: in vivo
[12] = tested on: Plasma; test: Plasma protein binding in human by chromatographic method; type: ADME, cell-free
[13] = tested on: Plasmodium falciparum; test: Antimalarial activity against Plasmodium falciparum 3D7 by [3H]hypoxanthine incorporation assay in presence of human serum; type: functional, organism-based
[14] = in vivo; settings: Swiss outbred, mouse, po, 0.4 mg/kg
[15] = tested on: Mus musculus; test: Time plasma concentration remained above 1 uM in Swiss outbred mouse plasma at 2 mg/kg, po; type: ADME, organism-based; design: dose 2 mg/kg, route oral; settings: in vivo
[16] = tested on: Plasma; test: Plasma protein binding in human by ultracentrifugation method; type: ADME, cell-free
[17] = Plasma protein binding in Swiss outbred mouse by ultracentrifugation; settings: read-out: PPB (converted)

With Cc1cc(Nc2ccc(C(F)(F)F)cc2)n2nc(C(C)(F)F)nc2n1 as the compound, how does the Vd [1] read?
Its Vd is 2.9 L/kg.

And the solubility [2]?
Its solubility is 70 µM (≈ 25 µg/mL).

What about the half-life [3] of the same compound?
Its half-life is 366 min.

What about the Time [4] of the same compound?
The Time was 0 h.

And the bioavailability [5]?
The bioavailability was 97%.

What about the EC50 [6] of the same compound?
Its EC50 is 7.9 nM.

And the Tmax [7]?
Its Tmax is 1 h.

And the Cmax [8]?
Its Cmax is 900 nM.

And the Cmax [9]?
The Cmax was 6.3 µM.

What about the Cmax [10] of the same compound?
Its Cmax is 11.4 µM.

And the Vd [11]?
Its Vd is 3.3 L/kg.

And the PPB [12]?
Its PPB is 90.4%.

And the EC50 [13]?
The EC50 was 10 nM.

What about the Tmax [14] of the same compound?
The Tmax was 30 min.

And the Time [15]?
Its Time is 6 h.

What about the PPB [16] of the same compound?
Its PPB is 98.8%.

What about the fraction unbound [17] of the same compound?
Its fraction unbound is 0.026.
